Data reported in publication PMC9151520 (Archives of Toxicology, 2022).
“And” between values parts separate entries of the source, which are not always exact repeats. Identical values can stand only once. Like-named read-outs stand apart in the source and are kept apart here.

Key:
[1] = system: p53 signaling (p53RE-bla HCT-116 cells); assay: cells; assay type: cell-based; conditions: for EC50 / Emax: Homo sapiens
[2] = system: p53 signaling (p53RE-bla HCT-116 cells)
[3] = system: p53 signaling (p53RE-bla HCT-116 cells); remark: listed apart in the source
p53RE-bla HCT-116 cells [4] = system: p53RE-bla HCT-116 cells
[5] = system: p53 signaling (p53RE-bla HCT-116 cells); assay: cells; conditions: Homo sapiens; for EC50: HCT-116, read-out: p53 activation EC50, primary screening
p53RE-bla HCT-116 cells [6] = assay: cells; conditions: Homo sapiens
[7] = rat
[8] = HCT-116, read-out: p53 activation efficacy, primary screening
[9] = HCT-116, read-out: Viability EC50, cherry pick confirmation
[10] = HCT-116, read-out: p53 activation EC50, cherry pick confirmation
[11] = HCT-116, read-out: p53 activation EC50, primary screening
[12] = HCT-116, read-out: p53 activation efficacy, cherry pick confirmation
[13] = HCT-116, read-out: Viability EC50, primary screening
[14] = HCT-116, read-out: p53 activation efficacy

Row | Structure (SMILES) | p53 activation EC50, cherry pick confirmation [1] | p53 activation EC50, primary screening [1] | p53 activation efficacy, cherry pick confirmation [1] | p53 activation efficacy, primary screening [1] | p53 activation EC50, cherry pick confirmation [2] | p53 activation efficacy, cherry pick confirmation [2] | p53 activation EC50, cherry pick confirmation [3] | p53 activation EC50, primary screening [3] | p53 activation efficacy, cherry pick confirmation [3] | p53 activation efficacy, primary screening [3] | Viability EC50, cherry pick confirmation (p53RE-bla HCT-116 cells [4]) | Viability EC50, primary screening (p53RE-bla HCT-116 cells [4]) | EC50 [5] | Emax [5, 8] | EC50 (p53RE-bla HCT-116 cells [6]; [9]) | EC50 [1, 10] | EC50 [1, 11] | Emax [1, 12] | Emax [1, 8] | EC50 (p53RE-bla HCT-116 cells [6]; [13]) | further results
1 | COC(=O)C1=C(C)NC(COC(N)=O)=C(C(=O)OC(C)C)C1c1cccc(Cl)c1Cl (stereo not drawn) [Lemildipine] | inactive | inactive | inactive | inactive | inactive | inactive | inactive | inactive | inactive | inactive | inactive | inactive | 20.7 µM | 59.7% | 19.9 µM | – | – | – | – | – | Viability efficacy, primary screening (p53RE-bla HCT-116 cells [4]): inactive
2 | CC1CCC(C(C)C)C(OC(=O)c2ccccc2N)C1 (stereo not drawn) [Menthyl anthranilate] | – | – | – | – | inactive | inactive | inactive | inactive | inactive | inactive | inactive | inactive | 34.8 µM | 70.8% | 33.8 µM | 0.837 µM | 48.8 µM | 40.4% | 62.5% | 36 µM | –
3 | CCOc1ccc2c(c1)C(C)=CC(C)(C)N2 [Ethoxyquin] | inactive | inactive | inactive | inactive | inactive | inactive | inactive | inactive | inactive | inactive | inactive | inactive | 39.1 µM | 50.4% | 51.1 µM | – | – | – | – | 54.2 µM | EC50 (p53RE-bla HCT-116 cells [4]; read-out: Viability EC50, cherry pick confirmation): 48.2 µM
4 | CCOP(=S)(OCC)Oc1nc(Cl)n(C(C)C)n1 [Isazofos] | – | – | – | – | – | – | – | – | – | – | – | – | – | – | – | – | – | – | – | – | p53 activation EC50 [1]: inactive; p53 activation efficacy [1]: inactive; EC50 [2]: 8.27 µM; p53 activation efficacy [2]: 50.5712 and 50.6263; p53 activation EC50 [3]: inactive; EC50 ([3]; read-out: p53 activation EC50): 1.62 µM; Viability EC50 (p53RE-bla HCT-116 cells [4]): inactive; Viability efficacy (p53RE-bla HCT-116 cells [4]): inactive; Depletion after 16 h of incubation with cells [7]: 97.88 ± 0.31%
5 | Nc1nc(N)c2nc(CNc3ccc(C(=O)N[C@@H](CCC(=O)O)C(=O)O)cc3)cnc2n1 [Aminopterin] | – | – | – | – | – | – | – | – | – | – | – | – | – | – | – | – | – | – | – | – | p53 activation efficacy [1]: 45.6293; Emax [1, 14]: 39.2%; p53 activation efficacy [2]: 37.0427; p53 activation EC50 [3]: inactive; p53 activation efficacy [3]: inactive; Viability EC50 (p53RE-bla HCT-116 cells [4]): inactive; Emax [5, 14]: 48.5%; EC50 (p53RE-bla HCT-116 cells [6]; HCT-116, read-out: Viability EC50): 0.191 µM
6 | CC(C)C[C@H](NC(=O)[C@H](CCc1ccccc1)NC(=O)CN1CCOCC1)C(=O)N[C@@H](Cc1ccccc1)C(=O)N[C@@H](CC(C)C)C(=O)[C@@]1(C)CO1 [Carfilzomib] | – | – | – | – | inactive | inactive | inactive | inactive | inactive | inactive | inactive | inactive | – | – | – | 0.0597 µM | 0.142 µM | 111% | 82% | 0.75 µM | p53 activation EC50, primary screening [2]: inactive; p53 activation efficacy, primary screening [2]: inactive
